From patent publication US20240181006A1, “POLYPEPTIDES BINDING ADAMTS5, MMP13 AND AGGRECAN” (Merck Patent GmbH, priority 2017, published 2024)

How the values were obtained:
[1] = system: bovine cartilage explants; assay: bovine cartilage explant assay, IL-1α, GAG release (polypeptide 949); type: cell-based; settings: 5 days with IL-1α, FIG. 3
Experimental: FIG. 3: Efficacy of polypeptide 949 (“NB949”) in bovine cartilage explant assay.
In short, the polypeptide was incubated with bovine cartilage explants that were cultured 5 days with IL-1α to induce an OA-like cartilage degradation process. Within 5 days, degradation of primarily Aggrecan ensues, whereas Collagen degradation only occurs after about two weeks, i.e., after termination of the experiments described here. At the end of the experiment, the GAG (mainly derived from Aggrecan) which was released from the degrading cartilage into the culture supernatant was quantified.

human cartilage explants = assay: human cartilage explant assay, IL-1β + OSM, GAG release; type: cell-based; settings: reference set at 100%, FIG. 4
Experimental: FIG. 4: Efficacy of polypeptide 949 in a human cartilage explant assay.
Polypeptide 949 (M-A-C-C: 62C02-2F03-114F08-114F08) was tested in human cartilage explant assays for inhibition of cartilage degradation. Briefly, the polypeptide was incubated with human cartilage explants that were cultured 7 days with IL-1β+Oncostatin M (OSM). Within 7 days, degradation of primarily Aggrecan ensues, whereas Collagen degradation only occurs after about two weeks, i.e., after termination of the experiments described here. At the end of the experiment, the GAG (mainly derived from Aggrecan) which was released from the degrading cartilage into the culture supernatant was quantified. The IC50 was calculated on the basis of the negative control level (=GAG release from explants without additional stimulus) and the IL-1 β+OSM level, as measure for maximal GAG loss. GAG is shown as GAG release (in μg) per mg cartilage of each individual explant.

## CC(C)(Cc1ccc(F)cc1)NC(=O)[C@H](CCC(=O)O)NC(=O)c1ccc(-c2ccccc2)cc1 [AGG-523]
[1]
  inhibition of bovine cartilage degradation (IL-1α stimulated GAG release): fully inhibits
Human cartilage explants
  inhibition of stimulated GAG release in human cartilage explant assay: fully inhibits
